These results are taken from the supplement of paper PMC10307832.

Common to all, as to assay: relative viability (nuclei count vs DMSO), 5 days (fraction); higher = more cells survive
Compound in the experiment “Etoposide + Palbociclib”: COc1cc([C@@H]2c3cc4c(cc3[C@@H](O[C@@H]3O[C@@H]5CO[C@@H](C)O[C@H]5[C@H](O)[C@H]3O)[C@H]3COC(=O)[C@H]23)OCO4)cc(OC)c1O [Etoposide] + CC(=O)c1c(C)c2cnc(Nc3ccc(N4CCNCC4)cn3)nc2n(C2CCCC2)c1=O [Palbociclib] (partner 0.5 µM)
In outline: (§1)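 Dosing by pin tool came one day after lung cancer cell lines were seeded in 1536-well plates, using either one drug or a fixed anchor-drug dose plus five library-drug doses (not always all listed) in √10 steps. After 5 days, nuclei were counted on 4× images. Relative viability is treated-well nuclei count divided by vehicle-well nuclei count, and values are medians of duplicate plates.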

Compound in the experiment “Bleomycin + Lapatinib”: CC1=C(N=C(N=C1N)[C@H](CC(=O)N)NC[C@@H](C(=O)N)N)C(=O)N[C@@H]([C@H](C2=CN=CN2)OC3C(C(C(C(O3)CO)O)O)OC4C(C(C(C(O4)CO)O)OC(=O)N)O)C(=O)N[C@H](C)[C@H]([C@H](C)C(=O)N[C@@H]([C@@H](C)O)C(=O)NCCC5=NC(=CS5)C6=NC(=CS6)C(=O)NCCC[S+](C)C)O [Bleomycin] + CS(=O)(=O)CCNCc1ccc(-c2ccc3ncnc(Nc4ccc(OCc5cccc(F)c5)c(Cl)c4)c3c2)o1 [Lapatinib] (partner 2 µM)
The settings on record: main component drawn. In outline:
as §1

Compound in the experiment “Etoposide + Luminespib”: COc1cc([C@@H]2c3cc4c(cc3[C@@H](O[C@@H]3O[C@@H]5CO[C@@H](C)O[C@H]5[C@H](O)[C@H]3O)[C@H]3COC(=O)[C@H]23)OCO4)cc(OC)c1O [Etoposide] + CCNC(=O)c1noc(-c2cc(C(C)C)c(O)cc2O)c1-c1ccc(CN2CCOCC2)cc1 [Luminespib] (partner 0.01 µM)
A digest of the protocol:
as §1

Compound in the experiment “Etoposide + Phenformin”: COc1cc([C@@H]2c3cc4c(cc3[C@@H](O[C@@H]3O[C@@H]5CO[C@@H](C)O[C@H]5[C@H](O)[C@H]3O)[C@H]3COC(=O)[C@H]23)OCO4)cc(OC)c1O [Etoposide] + N=C(N)NC(=N)NCCc1ccccc1 [Phenformin] (partner 250 µM)
In outline: as §1

Consider LC-2-ad, for which the relative viability with Etoposide + Palbociclib (first compound 0.01 µM) amounted to 0.52; with Etoposide + Palbociclib (first compound 0.03162 µM) it was 0.509; with Etoposide + Palbociclib (first compound 0.1 µM), 0.557; in the experiment with Etoposide + Palbociclib (first compound 0.3162 µM) it was 0.455; with Etoposide + Palbociclib (first compound 1 µM) it was 0.452; with Bleomycin + Lapatinib (first compound 0.01 µM), 0.674. Also, the relative viability with Bleomycin + Lapatinib (first compound 0.03162 µM) worked out at 0.264; in the experiment with Bleomycin + Lapatinib (first compound 0.1 µM), 0.286; with Bleomycin + Lapatinib (first compound 0.3162 µM), 0.127; with Bleomycin + Lapatinib (first compound 1 µM) it was 0.105; in the experiment with Etoposide + Luminespib (first compound 0.01 µM) it was 0.899; with Etoposide + Luminespib (first compound 0.03162 µM), 0.833. Further, the relative viability came to 0.711 with Etoposide + Luminespib (first compound 0.1 µM); 0.34 in the experiment with Etoposide + Luminespib (first compound 0.3162 µM); 0.305 in the experiment with Etoposide + Luminespib (first compound 1 µM); 0.602 with Etoposide + Phenformin (first compound 0.01 µM); 0.559 with Etoposide + Phenformin (first compound 0.03162 µM); 0.456 in the experiment with Etoposide + Phenformin (first compound 0.1 µM). Besides, the relative viability was 0.344 in the experiment with Etoposide + Phenformin (first compound 0.3162 µM) and 0.268 with Etoposide + Phenformin (first compound 1 µM).

Regarding COR-L 105, the relative viability with Etoposide + Palbociclib (first compound 0.01 µM) came to 0.423; in the experiment with Etoposide + Palbociclib (first compound 0.03162 µM), 0.41; with Etoposide + Palbociclib (first compound 0.1 µM), 0.383; in the experiment with Etoposide + Palbociclib (first compound 0.3162 µM), 0.394; with Etoposide + Palbociclib (first compound 1 µM), 0.366; with Bleomycin + Lapatinib (first compound 0.01 µM) it was 0.279. The relative viability came to 0.379 with Bleomycin + Lapatinib (first compound 0.03162 µM); 0.345 with Bleomycin + Lapatinib (first compound 0.1 µM); 0.268 in the experiment with Bleomycin + Lapatinib (first compound 0.3162 µM); 0.294 with Bleomycin + Lapatinib (first compound 1 µM); 0.96 with Etoposide + Luminespib (first compound 0.01 µM); 0.765 with Etoposide + Luminespib (first compound 0.03162 µM). Further, the relative viability was determined as 0.758 with Etoposide + Luminespib (first compound 0.1 µM); 0.625 in the experiment with Etoposide + Luminespib (first compound 0.3162 µM); 0.776 in the experiment with Etoposide + Luminespib (first compound 1 µM); 0.664 with Etoposide + Phenformin (first compound 0.01 µM); 0.53 with Etoposide + Phenformin (first compound 0.03162 µM); 0.405 with Etoposide + Phenformin (first compound 0.1 µM). The relative viability amounted to 0.444 with Etoposide + Phenformin (first compound 0.3162 µM) and 0.39 with Etoposide + Phenformin (first compound 1 µM).

For the cell line NCI-H1355, the relative viability came to 0.423 with Etoposide + Palbociclib (first compound 0.01 µM); 0.473 with Etoposide + Palbociclib (first compound 0.03162 µM); 0.275 with Etoposide + Palbociclib (first compound 0.1 µM); 0.355 in the experiment with Etoposide + Palbociclib (first compound 0.3162 µM); 0.281 with Etoposide + Palbociclib (first compound 1 µM); 0.901 with Bleomycin + Lapatinib (first compound 0.01 µM). In addition, the relative viability with Bleomycin + Lapatinib (first compound 0.03162 µM) came out at 1.15; with Bleomycin + Lapatinib (first compound 0.1 µM), 0.837; in the experiment with Bleomycin + Lapatinib (first compound 0.3162 µM), 0.337; with Bleomycin + Lapatinib (first compound 1 µM) it was 0.257; in the experiment with Etoposide + Luminespib (first compound 0.01 µM), 0.635; with Etoposide + Luminespib (first compound 0.03162 µM) it was 0.765. Besides, the relative viability with Etoposide + Luminespib (first compound 0.1 µM) stood at 0.403; with Etoposide + Luminespib (first compound 0.3162 µM), 0.338; with Etoposide + Luminespib (first compound 1 µM), 0.201; with Etoposide + Phenformin (first compound 0.01 µM), 0.452; with Etoposide + Phenformin (first compound 0.03162 µM), 0.493; with Etoposide + Phenformin (first compound 0.1 µM) it was 0.408. The relative viability stood at 0.325 in the experiment with Etoposide + Phenformin (first compound 0.3162 µM) and 0.218 with Etoposide + Phenformin (first compound 1 µM).

As for H3255, the relative viability was found to be 0.331 with Etoposide + Palbociclib (first compound 0.01 µM); 0.334 with Etoposide + Palbociclib (first compound 0.03162 µM); 0.351 in the experiment with Etoposide + Palbociclib (first compound 0.1 µM); 0.315 with Etoposide + Palbociclib (first compound 0.3162 µM); 0.281 with Etoposide + Palbociclib (first compound 1 µM); 0.244 with Bleomycin + Lapatinib (first compound 0.01 µM). In addition, the relative viability is 0.235 with Bleomycin + Lapatinib (first compound 0.03162 µM); 0.259 with Bleomycin + Lapatinib (first compound 0.1 µM); 0.214 with Bleomycin + Lapatinib (first compound 0.3162 µM); 0.173 with Bleomycin + Lapatinib (first compound 1 µM); 0.877 in the experiment with Etoposide + Luminespib (first compound 0.01 µM); 0.829 with Etoposide + Luminespib (first compound 0.03162 µM). Further, the relative viability amounted to 0.576 in the experiment with Etoposide + Luminespib (first compound 0.1 µM); 0.703 in the experiment with Etoposide + Luminespib (first compound 0.3162 µM); 0.379 with Etoposide + Luminespib (first compound 1 µM); 0.35 with Etoposide + Phenformin (first compound 0.01 µM); 0.404 in the experiment with Etoposide + Phenformin (first compound 0.03162 µM); 0.353 with Etoposide + Phenformin (first compound 0.1 µM). Moreover, the relative viability in the experiment with Etoposide + Phenformin (first compound 0.3162 µM) came out at 0.322; with Etoposide + Phenformin (first compound 1 µM), 0.305.

Consider NCI-H1993, for which the relative viability in the experiment with Etoposide + Palbociclib (first compound 0.03162 µM) amounted to 0.773; with Etoposide + Palbociclib (first compound 0.1 µM), 0.481; with Etoposide + Palbociclib (first compound 0.3162 µM), 0.659; with Etoposide + Palbociclib (first compound 1 µM), 0.482; with Bleomycin + Lapatinib (first compound 0.01 µM) it was 0.732; with Bleomycin + Lapatinib (first compound 0.03162 µM), 0.736. Moreover, the relative viability was 0.754 with Bleomycin + Lapatinib (first compound 0.1 µM); 0.656 with Bleomycin + Lapatinib (first compound 0.3162 µM); 0.609 in the experiment with Bleomycin + Lapatinib (first compound 1 µM); 0.827 with Etoposide + Luminespib (first compound 0.01 µM); 0.726 in the experiment with Etoposide + Luminespib (first compound 0.03162 µM); 0.757 with Etoposide + Luminespib (first compound 0.1 µM). Also, the relative viability came out at 0.73 with Etoposide + Luminespib (first compound 0.3162 µM); 0.48 with Etoposide + Luminespib (first compound 1 µM); 0.502 in the experiment with Etoposide + Phenformin (first compound 0.01 µM); 0.571 in the experiment with Etoposide + Phenformin (first compound 0.03162 µM); 0.528 with Etoposide + Phenformin (first compound 0.1 µM); 0.51 in the experiment with Etoposide + Phenformin (first compound 0.3162 µM). Also, the relative viability with Etoposide + Phenformin (first compound 1 µM) was 0.412.

Consider NCI-H1734, for which the relative viability worked out at 0.358 with Etoposide + Palbociclib (first compound 0.01 µM); 0.374 with Etoposide + Palbociclib (first compound 0.03162 µM); 0.312 in the experiment with Etoposide + Palbociclib (first compound 0.1 µM); 0.306 with Etoposide + Palbociclib (first compound 0.3162 µM); 0.242 with Etoposide + Palbociclib (first compound 1 µM); 0.802 in the experiment with Bleomycin + Lapatinib (first compound 0.01 µM). Further, the relative viability with Bleomycin + Lapatinib (first compound 0.03162 µM) amounted to 0.854; in the experiment with Bleomycin + Lapatinib (first compound 0.1 µM) it was 0.691; with Bleomycin + Lapatinib (first compound 0.3162 µM) it was 0.268; with Bleomycin + Lapatinib (first compound 1 µM), 0.184; in the experiment with Etoposide + Luminespib (first compound 0.01 µM), 0.226; in the experiment with Etoposide + Luminespib (first compound 0.03162 µM) it was 0.192. In addition, the relative viability in the experiment with Etoposide + Luminespib (first compound 0.1 µM) was found to be 0.182; with Etoposide + Luminespib (first compound 0.3162 µM), 0.185; with Etoposide + Luminespib (first compound 1 µM) it was 0.168; in the experiment with Etoposide + Phenformin (first compound 0.01 µM), 0.366; with Etoposide + Phenformin (first compound 0.03162 µM) it was 0.468; with Etoposide + Phenformin (first compound 0.1 µM) it was 0.324. The figures for the relative viability with Etoposide + Phenformin (first compound 0.3162 µM) and with Etoposide + Phenformin (first compound 1 µM) were 0.37 and 0.233, respectively.

With HOP-62, the relative viability with Etoposide + Palbociclib (first compound 0.01 µM) is 0.408; with Etoposide + Palbociclib (first compound 0.03162 µM) it was 0.478; with Etoposide + Palbociclib (first compound 0.1 µM), 0.464; with Etoposide + Palbociclib (first compound 0.3162 µM), 0.356; with Etoposide + Palbociclib (first compound 1 µM) it was 0.273; with Bleomycin + Lapatinib (first compound 0.01 µM), 0.485. Moreover, the relative viability worked out at 0.395 with Bleomycin + Lapatinib (first compound 0.03162 µM); 0.15 in the experiment with Bleomycin + Lapatinib (first compound 0.1 µM); 0.14 with Bleomycin + Lapatinib (first compound 0.3162 µM); 0.141 with Bleomycin + Lapatinib (first compound 1 µM); 0.855 in the experiment with Etoposide + Luminespib (first compound 0.01 µM); 0.977 with Etoposide + Luminespib (first compound 0.03162 µM). The relative viability with Etoposide + Luminespib (first compound 0.1 µM) amounted to 0.866; with Etoposide + Luminespib (first compound 0.3162 µM), 0.638; in the experiment with Etoposide + Luminespib (first compound 1 µM), 0.307; with Etoposide + Phenformin (first compound 0.01 µM) it was 0.71; in the experiment with Etoposide + Phenformin (first compound 0.03162 µM), 0.795; with Etoposide + Phenformin (first compound 0.1 µM), 0.578. Besides, the values for the relative viability with Etoposide + Phenformin (first compound 0.3162 µM) and in the experiment with Etoposide + Phenformin (first compound 1 µM) were 0.475 and 0.276, respectively.
